Measured values taken from the Kinase Knowledgebase extract (Sharma et al. 2016).

Key:
CDK2 = CDK2 (UniProt P24941); experiment: Enzyme Assay
CDK2 (human) = CDK2 (human) (UniProt P24941); experiment: Cell-Based Assay

IC50 (CDK2) [µM]	IC50 (CDK2 (human); mda-mb-435) [µM]	IC50 (CDK2 (human); hct 116) [µM]	IC50 (CDK2 (human); sw480) [µM]	Structure (SMILES)
1 to 9.99	–	–	–	Cc1cccc(-c2[nH]nc3c2N=C(c2ccccc2Cl)c2cc([N+](=O)[O-])ccc2N3)c1
–	0.01 to 1	–	–	C=Cc1[nH]nc2c1N=C(c1ccccc1Cl)c1cc([N+](=O)[O-])ccc1N2
–	1.1 to 9.99	–	–	COCc1[nH]nc2c1N=C(c1ccccc1Cl)c1cc([N+](=O)[O-])ccc1N2
–	0.01 to 1	0.01 to 1	0.01 to 1	Cc1[nH]nc2c1N=C(c1ccccc1Cl)c1cc([N+](=O)[O-])ccc1N2
–	–	10 to 30	–	O=[N+]([O-])c1ccc2c(c1)C(c1ccccc1)=Nc1c(n[nH]c1C1CC1)N2
–	0.01 to 1	1.1 to 9.99	0.01 to 1	Cc1[nH]nc2c1N=C(c1ccccc1F)c1cc(C#N)ccc1N2
–	0.01 to 1	–	1.1 to 9.99	Cc1[nH]nc2c1N=C(c1ccccc1)c1cc(F)ccc1N2
1 to 9.99	–	–	–	CC(C)Cc1[nH]nc2c1N=C(c1ccccc1Cl)c1cc([N+](=O)[O-])ccc1N2
–	1.1 to 9.99	–	–	CC(C)c1[nH]nc2c1N=C(c1ccccc1Cl)c1cc(N)ccc1N2
–	–	–	0.01 to 1	Cc1[nH]nc2c1N=C(c1ccccc1F)c1cc(C(N)=O)ccc1N2
1 to 9.99	–	–	–	Clc1ccc2c(c1)C(c1ccccc1)=Nc1c[nH]nc1N2
–	–	–	0.01 to 1	Cc1[nH]nc2c1N=C(c1ccccc1F)c1cc(F)ccc1N2
0.01 to 0.99	–	–	–	O=[N+]([O-])c1ccc2c(c1)C(c1ccccc1Cl)=Nc1c(n[nH]c1-c1ccsc1)N2
–	0.01 to 1	1.1 to 9.99	0.01 to 1	CC(C)c1[nH]nc2c1N=C(c1ccccc1Cl)c1cc([N+](=O)[O-])ccc1N2
–	0.01 to 1	–	0.01 to 1	Cc1[nH]nc2c1N=C(c1ccccc1)c1cc([N+](=O)[O-])ccc1N2
–	1.1 to 9.99	–	0.01 to 1	Cc1[nH]nc2c1N=C(c1ccccc1F)c1cc(C(=O)NCCO)ccc1N2
–	10 to 30	–	–	CN(C)Cc1[nH]nc2c1N=C(c1ccccc1Cl)c1cc([N+](=O)[O-])ccc1N2
1 to 9.99	–	–	–	Cc1ccc(-c2[nH]nc3c2N=C(c2ccccc2Cl)c2cc([N+](=O)[O-])ccc2N3)s1
–	0.01 to 1	–	0.01 to 1	CC(=O)Nc1ccc2c(c1)C(c1ccccc1Cl)=Nc1c(n[nH]c1C)N2
10 to 30	–	–	–	O=[N+]([O-])c1ccc2c(c1)C(c1ccccc1)=Nc1c(n[nH]c1-c1ccc3c(c1)OCCO3)N2
–	10 to 30	10 to 30	1.1 to 9.99	O=[N+]([O-])c1ccc2c(c1)C(c1ccccc1F)=Nc1c[nH]nc1N2

IC50 (CDK2) [µM]	IC50 (CDK2 (human); mda-mb-435) [µM]	IC50 (CDK2 (human); hct 116) [µM]	IC50 (CDK2 (human); sw480) [µM]	Structure (SMILES)
1 to 9.99	–	–	–	COC(=O)c1ccc2c(c1)C(c1ccccc1)=Nc1c[nH]nc1N2
–	1.1 to 9.99	1.1 to 9.99	1.1 to 9.99	CCOC(=O)c1ccc2c(c1)C(c1ccccc1F)=Nc1c(n[nH]c1C)N2
–	1.1 to 9.99	–	1.1 to 9.99	Cc1[nH]nc2c1N=C(c1ccccc1Cl)c1cc(Cl)ccc1N2
10 to 30	–	–	–	COc1ccccc1-c1[nH]nc2c1N=C(c1ccccc1Cl)c1cc([N+](=O)[O-])ccc1N2
–	–	10 to 30	10 to 30	O=[N+]([O-])c1ccc2c(c1)C(c1ccccc1Cl)=Nc1c(n[nH]c1-c1ccncc1)N2
1 to 9.99	–	–	–	O=[N+]([O-])c1ccc2c(c1)C(c1ccccc1Cl)=Nc1c(n[nH]c1-c1ccc3ccccc3c1)N2
1 to 9.99	–	–	–	O=C(O)c1ccc2c(c1)C(c1ccccc1)=Nc1c[nH]nc1N2
–	–	–	1.1 to 9.99	Cc1[nH]nc2c1N=C(c1ccccc1F)c1cc(Cl)ccc1N2
–	1.1 to 9.99	–	1.1 to 9.99	COc1ccc2c(c1)C(c1ccccc1Cl)=Nc1c(n[nH]c1C)N2
1 to 9.99	–	–	–	O=[N+]([O-])c1ccc2c(c1)C(c1ccccc1Cl)=Nc1c(n[nH]c1-c1cccc(O)c1)N2
1 to 9.99	–	–	–	N#Cc1cccc(-c2[nH]nc3c2N=C(c2ccccc2Cl)c2cc([N+](=O)[O-])ccc2N3)c1
–	–	10 to 30	–	O=[N+]([O-])c1ccc2c(c1)C(c1ccccc1Cl)=Nc1c(n[nH]c1-c1ccc(OC(F)(F)F)cc1)N2
10 to 30	–	–	–	O=[N+]([O-])c1ccc2c(c1)C(c1ccccc1Cl)=Nc1c(n[nH]c1-c1ccccc1[N+](=O)[O-])N2
–	–	10 to 30	–	CSc1ccc(-c2[nH]nc3c2N=C(c2ccccc2Cl)c2cc([N+](=O)[O-])ccc2N3)cc1
–	–	10 to 30	10 to 30	O=[N+]([O-])c1ccc2c(c1)C(c1ccccc1Cl)=Nc1c(n[nH]c1-c1cccc3ccccc13)N2
–	1.1 to 9.99	–	–	O=[N+]([O-])c1ccc2c(c1)C(c1ccccc1Cl)=Nc1c(n[nH]c1-c1cc[nH]n1)N2
10 to 30	–	–	–	O=[N+]([O-])c1ccc2c(c1)C(c1ccccc1Cl)=Nc1c(n[nH]c1-c1cccc(Oc3ccccc3)c1)N2
–	0.01 to 1	–	0.01 to 1	Cc1[nH]nc2c1N=C(c1ccccc1Cl)c1cc(NS(C)(=O)=O)ccc1N2
10 to 30	–	–	–	O=[N+]([O-])c1ccc2c(c1)C(c1ccccc1)=Nc1c(n[nH]c1-c1ccc3c(c1)OCO3)N2
1 to 9.99	–	–	–	CN(C)c1ccc(-c2[nH]nc3c2N=C(c2ccccc2Cl)c2cc([N+](=O)[O-])ccc2N3)cc1
–	1.1 to 9.99	–	1.1 to 9.99	Cc1[nH]nc2c1N=C(c1ccccc1Cl)c1ccccc1N2

IC50 (CDK2) [µM]	IC50 (CDK2 (human); mda-mb-435) [µM]	IC50 (CDK2 (human); hct 116) [µM]	IC50 (CDK2 (human); sw480) [µM]	Structure (SMILES)
1 to 9.99	–	–	–	CCOc1cccc(-c2[nH]nc3c2N=C(c2ccccc2Cl)c2cc([N+](=O)[O-])ccc2N3)c1
1 to 9.99	–	–	–	Cn1cccc1-c1[nH]nc2c1N=C(c1ccccc1Cl)c1cc([N+](=O)[O-])ccc1N2
–	0.01 to 1	–	0.01 to 1	O=[N+]([O-])c1ccc2c(c1)C(c1ccccc1Cl)=Nc1c(n[nH]c1CO)N2
–	1.1 to 9.99	–	–	O=[N+]([O-])c1ccc2c(c1)C(c1ccccc1Cl)=Nc1c(n[nH]c1C(F)(F)F)N2
–	–	10 to 30	10 to 30	O=[N+]([O-])c1ccc2c(c1)C(c1ccccc1Cl)=Nc1c(n[nH]c1-c1ccco1)N2
–	–	10 to 30	0.01 to 1	O=C(c1ccc2c(c1)C(c1ccccc1F)=Nc1c[nH]nc1N2)N1CCOCC1
–	–	10 to 30	–	O=[N+]([O-])c1ccc2c(c1)C(c1ccccc1Cl)=Nc1c(n[nH]c1-c1cncc3ccccc13)N2
–	–	–	10 to 30	Cc1[nH]nc2c1N=C(c1ccccc1)c1cc(Br)ccc1N2
–	1.1 to 9.99	–	1.1 to 9.99	Cc1[nH]nc2c1N=C(c1ccccc1)c1cc(Cl)ccc1N2
1 to 9.99	–	–	–	CCc1ccc(-c2[nH]nc3c2N=C(c2ccccc2Cl)c2cc([N+](=O)[O-])ccc2N3)o1
–	1.1 to 9.99	–	1.1 to 9.99	Cc1[nH]nc2c1N=C(c1ccccc1Cl)c1cc(NS(=O)(=O)N3CCOCC3)ccc1N2
–	–	1.1 to 9.99	10 to 30	NNC(=O)c1[nH]nc2c1N=C(c1ccccc1Cl)c1cc([N+](=O)[O-])ccc1N2
–	10 to 30	–	–	NC(=O)c1[nH]nc2c1N=C(c1ccccc1Cl)c1cc([N+](=O)[O-])ccc1N2
–	1.1 to 9.99	1.1 to 9.99	0.01 to 1	Cc1cn[nH]c1-c1[nH]nc2c1N=C(c1ccccc1Cl)c1cc([N+](=O)[O-])ccc1N2
–	–	10 to 30	10 to 30	O=[N+]([O-])c1ccc2c(c1)C(c1ccccc1Cl)=Nc1c(n[nH]c1-c1cccnc1)N2
–	10 to 30	10 to 30	10 to 30	CCCc1[nH]nc2c1N=C(c1ccccc1Cl)c1cc([N+](=O)[O-])ccc1N2
–	–	1.1 to 9.99	1.1 to 9.99	NC(=O)c1ccc2c(c1)C(c1ccccc1F)=Nc1c[nH]nc1N2
–	0.01 to 1	1.1 to 9.99	1.1 to 9.99	O=[N+]([O-])c1ccc2c(c1)C(c1ccccc1Cl)=Nc1c(n[nH]c1C1CC1)N2
–	–	10 to 30	–	COc1cc(O)ccc1-c1[nH]nc2c1N=C(c1ccccc1Cl)c1cc([N+](=O)[O-])ccc1N2
–	1.1 to 9.99	–	1.1 to 9.99	Cc1[nH]nc2c1N=C(c1ccccc1Cl)c1cc(NS(=O)(=O)NCCl)ccc1N2
–	1.1 to 9.99	–	–	O=[N+]([O-])c1ccc2c(c1)C(c1ccccc1Cl)=Nc1c(n[nH]c1-c1c[nH]cn1)N2

IC50 (CDK2) [µM]	IC50 (CDK2 (human); mda-mb-435) [µM]	IC50 (CDK2 (human); hct 116) [µM]	IC50 (CDK2 (human); sw480) [µM]	Structure (SMILES)
–	0.01 to 1	–	0.01 to 1	Cc1[nH]nc2c1N=C(c1ccccc1F)c1cc([N+](=O)[O-])ccc1N2
–	0.01 to 1	–	0.01 to 1	C=CC(=O)Nc1ccc2c(c1)C(c1ccccc1Cl)=Nc1c(n[nH]c1C)N2
–	–	10 to 30	10 to 30	Clc1ccccc1C1=Nc2c[nH]nc2Nc2ccccc21
–	–	10 to 30	–	O=C(NCCO)c1ccc2c(c1)C(c1ccccc1F)=Nc1c[nH]nc1N2
–	–	10 to 30	–	O=[N+]([O-])c1ccc2c(c1)C(c1ccccc1)=Nc1c[nH]nc1N2
–	10 to 30	–	–	N#Cc1[nH]nc2c1N=C(c1ccccc1Cl)c1cc([N+](=O)[O-])ccc1N2
–	0.01 to 1	–	1.1 to 9.99	Cc1[nH]nc2c1N=C(c1ccccc1Cl)c1cc(NS(=O)(=O)N(C)C)ccc1N2
–	–	–	0.01 to 1	Cc1[nH]nc2c1N=C(c1ccccc1C(F)(F)F)c1cc([N+](=O)[O-])ccc1N2
–	10 to 30	–	–	O=[N+]([O-])c1ccc2c(c1)C(c1ccccc1Cl)=Nc1c(n[nH]c1-c1nccs1)N2
–	–	10 to 30	10 to 30	O=[N+]([O-])c1ccc2c(c1)C(c1ccccc1Cl)=Nc1c(n[nH]c1-c1ccccc1)N2
–	–	10 to 30	–	O=[N+]([O-])c1ccc2c(c1)C(c1ccccc1Cl)=Nc1c(n[nH]c1-c1cccc3c1OCO3)N2
–	1.1 to 9.99	–	0.01 to 1	Cc1[nH]nc2c1N=C(c1ccccc1F)c1cc(C(=O)N3CCOCC3)ccc1N2
–	1.1 to 9.99	–	0.01 to 1	Cc1[nH]nc2c1N=C(c1ccccc1F)c1ccccc1N2
–	10 to 30	10 to 30	1.1 to 9.99	O=[N+]([O-])c1ccc2c(c1)C(c1ccccc1Cl)=Nc1c[nH]nc1N2
–	0.01 to 1	0.01 to 1	0.01 to 1	CCc1[nH]nc2c1N=C(c1ccccc1Cl)c1cc([N+](=O)[O-])ccc1N2
–	–	–	1.1 to 9.99	Cc1[nH]nc2c1N=C(c1ccccc1F)c1cc(I)ccc1N2
–	0.01 to 1	–	0.01 to 1	N#Cc1ccc2c(c1)C(c1ccccc1F)=Nc1c(n[nH]c1CO)N2
–	0.01 to 1	–	–	O=Cc1[nH]nc2c1N=C(c1ccccc1Cl)c1cc([N+](=O)[O-])ccc1N2
–	–	1.1 to 9.99	1.1 to 9.99	O=[N+]([O-])c1ccc2c(c1)C(c1ccccc1Cl)=Nc1c(n[nH]c1-c1ccc[nH]1)N2
–	1.1 to 9.99	–	0.01 to 1	Cc1[nH]nc2c1N=C(c1ccccc1F)c1cc(C(=O)NCCN3CCOCC3)ccc1N2

Structure (SMILES)	IC50 (CDK2) [µM]	IC50 (CDK2 (human); mda-mb-435) [µM]	IC50 (CDK2 (human); hct 116) [µM]	IC50 (CDK2 (human); sw480) [µM]
N#Cc1ccc2c(c1)C(c1ccccc1F)=Nc1c[nH]nc1N2	–	1.1 to 9.99	1.1 to 9.99	1.1 to 9.99
Cc1[nH]nc2c1N=C(c1ccccc1Cl)c1cc(N)ccc1N2	–	0.01 to 1	–	0.01 to 1
